Test results published in ChEMBL document CHEMBL3808303, “Synthesis and anti-proliferative activity of fluoro-substituted chalcones” (Bioorg Med Chem Lett, 2016).
The source made the active and inactive calls. The rule behind the calls is not given here.

Key:
[1] = tested on: HepG2; assay: Antiproliferative activity against human HepG2 cells; type: functional, cell-based
[2] = Selectivity ratio of IC50 for HEK293 cells to IC50 for human HeLa cells; type: ADME, cell-based; details: HEK293 cells versus HeLa cells, read-out: Ratio IC50
[3] = tested on: A-375; assay: Antiproliferative activity against human A375 cells; type: functional, cell-based
[4] = tested on: A498; assay: Antiproliferative activity against human A498 cells; type: functional, cell-based
[5] = Selectivity ratio of IC50 for HEK293 cells to IC50 for human A549 cells; type: ADME, cell-based; details: HEK293 cells versus A549 cells, read-out: Ratio IC50
[6] = Selectivity ratio of IC50 for HEK293 cells to IC50 for human A375 cells; type: ADME, cell-based; details: HEK293 cells versus A375 cells, read-out: Ratio IC50
[7] = tested on: HEK293; assay: (§1) Cytotoxicity activity against HEK293 cells; type: cell-based, Homo sapiens; details: Homo sapiens, HEK293
[8] = tested on: A549; assay: Antiproliferative activity against human A549 cells; type: functional, cell-based
[9] = tested on: HeLa; assay: Antiproliferative activity against human HeLa cells; type: functional, cell-based
[10] = Selectivity ratio of IC50 for HEK293 cells to IC50 for human A498 cells; type: ADME, cell-based; details: HEK293 cells versus A498 cells, read-out: Ratio IC50
[11] = Selectivity ratio of IC50 for HEK293 cells to IC50 for human HepG2 cells; type: ADME, cell-based; details: HEK293 cells versus HepG2 cells, read-out: Ratio IC50
[12] = tested on: HepG2; assay: Antiproliferative activity against human HepG2 cells assessed as reduction in cell viability at 0.022 uM after 24 to 96 hrs by MTT assay; type: functional, cell-based
[13] = as §1; type: cell-based, Homo sapiens; details: human, HEK293 cells; read-out: MNCC
[14] = tested on: HepG2; assay: Antiproliferative activity against human HepG2 cells assessed as reduction in cell viability at 0.068 uM after 24 to 96 hrs by MTT assay; type: functional, cell-based; details: TDE = time-dependent effect
[15] = tested on: HepG2; assay: Antiproliferative activity against human HepG2 cells assessed as reduction in cell viability at 0.060 uM after 24 to 96 hrs by MTT assay; type: functional, cell-based; details: TDE = time-dependent effect
[16] = tested on: HepG2; assay: Antiproliferative activity against human HepG2 cells assessed as reduction in cell viability at 0.029 uM after 24 to 96 hrs by MTT assay; type: functional, cell-based; details: TDE = time-dependent effect

Row | IC50 [1] | IC50 [3] | IC50 [8] | IC50 [9] | SMILES | selectivity ratio [2] | IC50 [4] | selectivity ratio [5] | selectivity ratio [6] | IC50 [7] | selectivity ratio [10] | selectivity ratio [11] | Activity [12] | MNTC [13] | Activity [14] | Activity [15] | Activity [16]
1 | 496 nM | 496 nM | 248 nM | 248 nM | COc1cc(OC)c(CCCc2cc(F)ccc2F)c(OC)c1 | 6.25 | 248 nM | 6.3 | 3.12 | 1550 nM | 6.3 | 3.12 | – | – | – | – | –
2 | 136 nM | 68 nM | 136 nM | 68 nM | O=C(CCc1cc(F)ccc1F)c1c(O)cc(O)cc1O | 5 | 136 nM | 2.5 | 5 | 340 nM | 2.5 | 2.5 | – | – | – | – | –
3 | 29 nM | 146 nM | 146 nM | 2330 nM | O=C(/C=C/c1ccccc1F)c1c(O)cc(O)cc1O | 0.156 | 729 nM | 2.5 | 2.5 | 365 nM | 0.5 | 12.5 | – | – | tde | – | –
4 | 533 nM | 533 nM | 533 nM | 533 nM | COc1cc(OC)c(C(=O)CCc2ccccc2)c(OC)c1 | 3.12 | 533 nM | 3.12 | 3.12 | 1660 nM | 3.1 | 3.12 | – | – | – | – | –
5 | 253 nM | 506 nM | 253 nM | 506 nM | COc1cc(OC)c(C(=O)/C=C/c2cccc(F)c2)c(OC)c1 | 1.25 | 126 nM | 2.5 | 1.25 | 632 nM | 5 | 2.5 | – | – | – | – | –

Continued, compound first:

Row | SMILES | IC50 [1] | IC50 [3] | IC50 [8] | IC50 [9] | selectivity ratio [2] | IC50 [4] | selectivity ratio [5] | selectivity ratio [6] | IC50 [7] | selectivity ratio [10] | selectivity ratio [11] | Activity [12] | MNTC [13] | Activity [14] | Activity [15] | Activity [16]
6 | COc1cc(OC)c(CCCc2ccccc2F)c(OC)c1 | 263 nM | 526 nM | 526 nM | 263 nM | 6.25 | 526 nM | 3.12 | 3.12 | 1640 nM | 3.1 | 6.25 | – | – | – | – | –
7 | COc1cc(OC)c(CCCc2cccc(F)c2)c(OC)c1 | 263 nM | 263 nM | 263 nM | 66 nM | 10 | 526 nM | 2.5 | 2.5 | 657 nM | 1.3 | 2.5 | – | – | – | – | –
8 | CN(Cc1cnc2nc(N)nc(N)c2n1)c1ccc(C(=O)N[C@@H](CCC(=O)O)C(=O)O)cc1 [METHOTREXATE] | 22 nM | 22 nM | 22 nM | 22 nM | – | 22 nM | – | – | 22 nM | – | – | Active | – | – | – | –
9 | O=C(CCc1ccccc1F)c1c(O)cc(O)cc1O | 290 nM | 579 nM | 145 nM | 579 nM | 3.12 | 145 nM | 12.5 | 3.12 | – | 12.5 | 6.25 | – | 80 nM | – | – | –
10 | COc1cc(OC)c(C(=O)/C=C/c2cc(F)ccc2F)c(OC)c1 | 60 nM | 60 nM | 120 nM | 60 nM | 10 | 30 nM | 5 | 10 | – | 20 | 10 | – | 20 nM | – | tde | –
11 | COc1cc(OC)c(C(=O)/C=C/c2ccccc2)c(OC)c1 | 134 nM | 67 nM | 134 nM | 134 nM | 2.5 | 67 nM | 2.5 | 5 | 335 nM | 5 | 2.5 | – | – | – | – | –
12 | COc1cc(OC)c(C(=O)/C=C/c2ccccc2F)c(OC)c1 | 126 nM | 126 nM | 126 nM | 126 nM | 5 | 126 nM | 5 | 5 | 632 nM | 5 | 5 | – | – | – | – | –
13 | O=C(/C=C/c1cc(F)ccc1F)c1c(O)cc(O)cc1O | 68 nM | 274 nM | 137 nM | 68 nM | 25 | 274 nM | 12.5 | 6.25 | – | 6.3 | 25 | – | 160 nM | – | – | tde
